Laboratory results: patent US7317038B2, “Nerve regeneration promoters containing semaphorin inhibitor as the active ingredient” (Dainippon Sumitomo Pharma Co., Ltd., priority 2000, dated 2008)
“Also recorded” adds a separate entry of the source.

What was measured:
[1] = test system: adult rat models for olfactory nerve axotomy; assay: In vivo nerve regeneration after olfactory nerve axotomy; details: for Positive section No. (which section from the vertex, average ± SE): HRP-positive glomerulus
Experimental: Male Wister rats (6.5-week-old) were purchased from CHARLES RIVER JAPAN, INC. and bred under free feeding and water uptake in the dedicated breeding room. A sample solution was prepared by diluting SPF-3059-1 to lmg/ml with PBS and filled in an osmotic pressure pump (alzet 2004, ALZA co., USA). A pump filled with PBS was used as a control. The sample solution and the like were prepared on the day before the operation and the osmotic pressure pump was bathed in PBS and placed overnight at room temperature. Just before the operation, a L-cannula was connected to the one end of a silicon tube filled with the sample solution and the like, and the other end of the tube was connected to the pump. A rat was anesthetized with pentbarbital (50 mg/kg, intrapenitrially injected), and its head was fixed to the stereotaxic apparatus. The scalp was incised along the median and the cranium above the olfactory bulb was opened to expose the olfactory bulb (anterior part). In order to axotomize olfactory nerve, a knife (a razor was cut into 1.5 mm width) was inserted in between the olfactory bulb and the cribriform plate. The olfactory nerve which is projected on the upper olfactory bulb is axotomized by this handling. The L-cannula was fixed to the cranium-opening above the olfactory with surgical instant adhesive and dental cement so that the edge of cannula is located in the vicinity of the incision. The sample output was set to 6 μl (6 μg)/day. The pump was subcutaneously inserted in the dorsal neck and the incision was sutured. Then the animal was recovered.
Two and three weeks after the operation, the rat anesthetized with pentbarbital was laid on its back and injected with 100 μl of 1% WGA-HRP/PBS (TOYOBO) into the nasal cavity using a microsyringe. 24 hours after the HRP injection, the rat was further anesthetized with pentbarbital (50 mg/kg, intrapenitrially injected) and was thoracically incised. […]
Regeneration of olfactory nerves was quantitatively assessed by observing in which horizontal section of the olfactory bulb from the vertex did HRP-positive glomerulus emerge. […]

[2] = molecular target: T1, mouse semaphorin 3A (Sema3A) (Mus musculus, UniProt O08665); assay: Suppression of growth cone collapse activity of Sema3A (chick embryo dorsal root ganglions); type: cell-based
T1 sequence (O08665 21-772): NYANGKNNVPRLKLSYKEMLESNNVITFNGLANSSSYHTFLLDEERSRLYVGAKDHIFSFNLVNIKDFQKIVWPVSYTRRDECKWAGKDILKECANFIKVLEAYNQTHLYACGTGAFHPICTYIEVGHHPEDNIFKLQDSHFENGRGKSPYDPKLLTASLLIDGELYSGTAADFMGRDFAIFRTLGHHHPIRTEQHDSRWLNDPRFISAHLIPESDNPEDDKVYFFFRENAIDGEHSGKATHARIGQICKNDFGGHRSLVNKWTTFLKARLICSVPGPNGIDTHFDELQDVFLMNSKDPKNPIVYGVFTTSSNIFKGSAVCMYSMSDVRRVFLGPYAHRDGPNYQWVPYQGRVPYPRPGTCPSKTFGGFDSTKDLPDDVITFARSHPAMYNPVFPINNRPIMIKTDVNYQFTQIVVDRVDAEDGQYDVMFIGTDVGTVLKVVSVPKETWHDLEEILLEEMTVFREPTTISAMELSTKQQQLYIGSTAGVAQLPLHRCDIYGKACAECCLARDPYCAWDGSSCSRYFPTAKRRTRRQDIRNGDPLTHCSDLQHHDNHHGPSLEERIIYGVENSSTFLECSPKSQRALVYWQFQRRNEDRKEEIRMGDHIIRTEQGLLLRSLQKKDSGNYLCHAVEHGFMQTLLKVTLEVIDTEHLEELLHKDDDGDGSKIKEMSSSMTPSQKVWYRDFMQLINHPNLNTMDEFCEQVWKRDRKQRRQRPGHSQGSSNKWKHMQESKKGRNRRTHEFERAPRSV
Experimental: A 96-well plate (Sumitomo Bakelite Co., ltd. ) pre-coated with polylysine was further coated with laminine (20 μg/ml of laminine, for 1 hour at room temperature). Each well was added with 100 μl of medium (F12 medium containing 10% bovine fetal serum, 20 ng/ml of NGF, 100 units/ml of penicillin and 100 μg/ml of streptomycin) which media were then inoculated with dorsal root nerve ganglions excised from E7 (Embryonic day 7) chick embryo and were cultured for 16 to 20 hours under 5% CO2 and at 37° C. Subsequently, the object compounds were added to media at various concentrations and 2 units/ml of mouse semaphorin 3A (Sema3A) was added after cultivating for 1 hour. The cultures were further incubated for another 1 hour. Glutaraldehyde was quickly added therein after said 1 hour to make the final concentration 1%. The cultures were then left for 15 minutes at room temperature so that the tissue sections were fixed, and collapse rates of the growth cones were microscopically observed. A well with no addition of Sema3A was made the control.
The longitudinal and lateral axes in the figures represent the collapse rate of growth cones and the concentration of compounds, respectively. ●▪▴ show the results when Sema3A was added after the addition of the compounds and ◯[…]Δ show those when Sema3A was not added. Further, IC50 (μg/ml) of the inhibitors were determined by the method comprising: calculating the collapse rate of growth cone (A) % of the negative controls (neither compounds nor Sema3a was added); subsequently calculate the collapse rate of growth cone (B) % of the positive controls (compounds were not added but Sema3a was added); and the concentration was chosen for each compound from the chart where the collapse rate of growth cone met (A+B)/2(%), which was made IC50 level. The followings are the results.

IC50 ([2]; E7 chick embryo dorsal root ganglions, 2 units/ml Sema3A added 1 hour after compound, concentration where collapse rate = (A+B)/2, read-out: IC50 of inhibition of the growth cone collapse activity of Sema3A (converted)): < 173 nM
Compound: CC(=O)c1c(C)c(C(=O)C2COc3cc(O)c(O)c(C(=O)O)c3C2=O)cc2c(=O)c3c(C(=O)O)c(O)c(O)cc3oc12 (centres unmarked) [SPF-3059-1]
in vivo nerve-regeneration promoting action in olfactory nerve axotomy (in words) [1]: marked nerve-regeneration promoting action | Positive section No. (which section from the vertex, average ± SE) ([1]; Week 2, 6 μg/day by osmotic pump near incision): 8.3 ± 1.9 | Positive section No. (which section from the vertex, average ± SE) ([1]; Week 3, 6 μg/day by osmotic pump near incision): 5.2 ± 1.9 | inhibition of growth cone collapse activity of Sema3A (in words) ([2]; chick embryo dorsal root ganglions): inhibit the growth cone collapse activities of Sema3A in a concentration-dependent manner; also recorded: potently inhibit semaphorin
